Measured values from patent US6774133B2, “Substituted spiroheterocyclic 1H-3-aryl-pyrrolidine-2,4-dione derivatives, processes for their preparation, and their use as pesticides” (Bayer Aktiengesellschaft, priority 1993, dated 2004).

System: green peach apid (Myzus persicae)
Test: Myzus test (cabbage leaves dipped)
Assay type: in vivo
Conditions: after 6 days; active compound concentration 0.1%
Method: Solvent: 7 parts by weight of dimethylformamide
Emulsifier: 1 part by weight of alkylaryl polyglycol ether
To produce a suitable preparation of active compound, 1 part by weight of active compound is mixed with the stated amount of solvent and the stated amount of emulsifier, and the concentrate is diluted with water to the desired concentration.
Cabbage leaves (Brassica oleracea) which are severely infested with the green peach apid (Myzus persicae) are treated by being dipped into the preparation of active compound of the desired concentration.
After the specified periods of time, the destruction in % is determined. 100% means that all the aphids have been killed; 0% means that none of the aphids have been killed.

SMILES	destruction rate
CC(C)C(=O)OC1=C(c2ccc(Cl)cc2Cl)C(=O)NC12CCCCC2 [(B)]	20%
Cc1cc(C)c(C2=C(O)C3(CCCCC3)NC2=O)c(C)c1 [(A)]	no destruction
